How the values were obtained:
[1] = biological target: HDAC1 (Homo sapiens, UniProt Q13547); test: HDAC1 inhibition IC50; type: biochemical
[2] = biological target: HDAC2 (Homo sapiens, UniProt Q92769); test: HDAC2 inhibition IC50; type: biochemical
[3] = biological target: HDAC3 (Homo sapiens, UniProt O15379); test: HDAC3 inhibition IC50; type: biochemical
[4] = system: hearts from Sprague-Dawley rats; test: Langendorff isolated heart ischemia-reperfusion model, drug at reperfusion (ex vivo); conditions: drug during reperfusion; for left ventricular function (dP/dtmax, dP/dtmin, developed pressure, rate pressure product): 30 min ischemia, 60 min reperfusion, vs drug-free control; for infarct area / viable myocardium (TTC staining): end of 60 min reperfusion
Experimental: (B) Graphs represent measurements of left ventricular function after 30 minutes of ischemia and 60 minutes of reperfusion. dP/dtmax indicates the rate of pressure development, dP/dtmin indicates the rate of pressure relaxation, Developed Pressure was calculated as the difference between the systolic and diastolic pressures, Rate Pressure Product was calculated as the developed pressure multiplied by the heart rate. Measurements were taken at the end of reperfusion. (C) TTC staining for infarct area at the end of reperfusion; yellow/white region indicates area of infarction. Infarct areas were measured using imageJ software. All data are represented as mean+/−S.D. N=4, t-test *p,0.05.
FIG. 3 provides data showing (A) Confocal fluorescent images of myocytes loaded with LL-66 and Mitotracker Deep Red FM. (B) LV functional measurements taken at the end of 30 minutes ischemia and 60 minutes of reperfusion, represented as a percentage of baseline pre-ischemia function. dP/dtmax indicates the rate of pressure development, dP/dtmin indicates the rate of pressure relaxation, Developed Pressure was calculated as the difference between the systolic and diastolic pressures, Rate Pressure Product was calculated as the developed pressure multiplied by the heart rate. Measurements were taken at the end of reperfusion. (C) TTC staining for infarct at the end of reperfusion; yellow/white region indicates area of infarction. Infarct areas were measured using image) software. (D) Area of Infarction for each of the groups in (C). N=3 for (A), For B-D, All data are represented as mean+/−S.D. N=4 t-test for panel B, one way ANOVA with bonferroni post-test for panel D *p<0.05.
To test whether selective class I HDAC inhibition can postcondition the heart against […], the inventors isolated hearts from Sprague-Dawley rats and perfused them using a constant pressure Langendorff apparatus. After 15 minutes of equilibration, the inventors subjected the hearts to 30 minutes of ischemia, followed by 60 minutes of reperfusion. The selective class I HDAC inhibitor MS-275 was administered throughout the reperfusion phase and compared to drug-free control hearts (FIG. 1A). In order to measure left ventricular functional performance, a saline-filled balloon was inserted into the left ventricle and attached to a pressure transducer. […] At the conclusion of the 60 minute reperfusion period, hearts were removed from the perfusion column and sliced into 2 mm transverse sections using a tissue slicing matrix. Hearts were then incubated in 2,3,5-triphenyltetrazolium chloride ([…]) in order to determine the amount of infarcted myocardium. […]

[5] = system: isolated adult rat cardiac myocytes; test: Seahorse oxygen consumption rate (OCR) in myocytes, normoxia or simulated hypoxia-reoxygenation; type: cell-based
Experimental: (§1) FCCP was injected at point A and […] injected at point B. (B) Measurements of OCR in isolated myocytes subjected to normoxia (blue) or chemical hypoxia. reoxygenation (red) and reperfused with DMSO (red), MS-275 (pink), or LL-66 (peach). For (A) and (B), top panels are representative, bottom panels are the uncoupled rate as a percentage of baseline rate over 4 runs. (C) Oxyblotting of tissue homogenates from Langendorff hearts subjected to I/R+/−LL-66 or MS-275. Representative seahorse data are represented mean +/−SEM, Bar graphs are represented mean +/−S.D. For all experiments, N-4, one way ANOVA with Dunnet post test *p<0.05, **p<0.01.
(§2) Since acetylation is known to regulate the activity of mitochondrial enzymes involved in multiple metabolic pathways, the inventors decided to determine if class I HDAC inhibition affects metabolic activity in cardiac myocytes both at baseline and when subjected to simulated hypoxia-reoxygenation (sI/R). For these experiments, isolated adult rat cardiac myocytes were subjected to chemical hypoxia or normoxia control for 90 minutes, then reperfused in the presence of DMSO vehicle, MS-275, or LL-66 for 60 minutes. At the conclusion of the reperfusion period, myocytes were loaded into a Seahorse extracellular flux analyzer and the oxygen consumption rate (OCR) was analyzed at baseline and in response to FCCP (injection A) and […] (injection B).

[6] = system: Langendorff hearts; test: Oxyblotting of lysates from Langendorff hearts subjected to I/R; parameters: species or system rat; conditions: I/R hearts +/- drug
Experimental: as §1
as §2, with “For these experiments, isolated adult rat cardiac myocytes were subjected to chemical hypoxia or normoxia control for 90 minutes, then reperfused in the presence of DMSO vehicle, MS-275, or LL-66 for 60 minutes.” left out

[7] = system: SDHA; test: Mass spectrometry of protein acetyl-lysine in I/R hearts treated at reperfusion; parameters: species or system rat; conditions: for change in SDHA acetylation: I/R hearts, treated at reperfusion, preliminary MS data; for acetylation of SDHA K480: IR with drug treatment
Experimental: (§3) N=3 per group. (B) Treatment of Langendorff hearts with HDAC inhibitors reduce succinate dehydrogenase activity. SDH activity was measured in tissue lysates from reperfused hearts treated with either MS275 or LL-66 at reperfusion. N=4 per group. (C) SDHA activity was measured in mitochondria isolated from HEK2.93 cells expressing WT, K480Q or K480R mutants. N=4
Samples from I/R hearts treated with LL-66, LL-224, MS-275 and vehicle at reperfusion were prepared for mass spectrometry to detect changes in protein acetyl-lysine. […] The inventors previously proposed to first focus on the lysine corresponding to mouse SDHA K538. […] SDH is unique in that it is the only enzyme that participates both in the Krebs cycle and oxidative phosphorylation in mitochondria. Thirteen acetyl-lysine's have been identified on SDHA but there is no acetylation of SDHB^11*, and SDHA is hyper-acetylated in the Sirt3 knockout mouse. […] HEK293 lowers SDH basal activity^13*, SDH K179 is a target of Sirt3.
(§4) Therefore, since inhibition of the mitochondrial HDAC1 represses SDH activity and. K538 is hyperacetylated in IR when HDAC1 is inhibited, the inventors first proposed to test whether K538 acetylation represses SDH activity. The inventors have made and expressed the mouse WT, K538Q and K538R point mutants of SDHA in HEK293 cells to determine if acetylation of K538 also represses SDH activity. Contrary to what the inventors had hoped the K538Q and K538R SDHA mutants had no difference in SDHA activity from WT SDHA after normalization for expression (data not shown). […] The K480R has WT activity and K.480Q has suppressed SDHA activity (FIG. 5C) when expressed in HEK293 cells.

[8] = system: succinate dehydrogenase; test: SDH activity in tissue lysates from reperfused Langendorff hearts; parameters: species or system rat; conditions: Langendorff hearts treated at reperfusion
Experimental: as §3, §4

[9] = at baseline (normoxia), FCCP-uncoupled
[10] = following sI/R (90 min chemical hypoxia, 60 min reperfusion with drug)

Sequence of HDAC3 (O15379 whole entry, species assumed, the tested form may be a part): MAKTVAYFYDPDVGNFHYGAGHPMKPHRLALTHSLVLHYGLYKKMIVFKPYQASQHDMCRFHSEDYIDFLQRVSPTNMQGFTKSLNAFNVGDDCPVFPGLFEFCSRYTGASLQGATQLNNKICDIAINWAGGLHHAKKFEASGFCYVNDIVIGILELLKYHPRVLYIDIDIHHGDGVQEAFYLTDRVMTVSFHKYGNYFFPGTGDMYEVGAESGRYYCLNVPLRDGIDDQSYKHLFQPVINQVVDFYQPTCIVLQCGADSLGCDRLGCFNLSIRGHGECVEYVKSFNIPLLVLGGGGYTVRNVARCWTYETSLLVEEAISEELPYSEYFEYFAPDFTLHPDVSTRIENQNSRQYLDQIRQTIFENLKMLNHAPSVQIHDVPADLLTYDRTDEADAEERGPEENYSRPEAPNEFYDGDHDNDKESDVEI
Sequence of HDAC3 (Q9Y618 395-489 partner limits assumed, species assumed): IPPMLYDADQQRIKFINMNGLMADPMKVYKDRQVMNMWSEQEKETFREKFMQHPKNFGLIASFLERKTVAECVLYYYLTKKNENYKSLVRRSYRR
Sequence of HDAC2 (Q92769 whole entry, species assumed): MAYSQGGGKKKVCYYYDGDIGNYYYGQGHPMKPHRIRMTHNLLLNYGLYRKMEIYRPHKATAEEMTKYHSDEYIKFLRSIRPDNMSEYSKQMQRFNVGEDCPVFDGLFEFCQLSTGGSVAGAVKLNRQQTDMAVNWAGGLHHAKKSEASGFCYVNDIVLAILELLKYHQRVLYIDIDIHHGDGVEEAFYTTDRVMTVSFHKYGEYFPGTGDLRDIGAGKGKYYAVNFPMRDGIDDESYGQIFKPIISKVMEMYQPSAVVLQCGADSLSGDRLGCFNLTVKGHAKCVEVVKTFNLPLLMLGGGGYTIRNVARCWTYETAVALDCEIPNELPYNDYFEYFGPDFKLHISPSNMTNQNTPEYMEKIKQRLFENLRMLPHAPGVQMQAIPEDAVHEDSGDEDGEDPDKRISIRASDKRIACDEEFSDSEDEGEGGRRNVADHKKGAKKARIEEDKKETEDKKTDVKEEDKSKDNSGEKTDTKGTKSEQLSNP
Sequence of HDAC1 (Q13547 whole entry, species assumed): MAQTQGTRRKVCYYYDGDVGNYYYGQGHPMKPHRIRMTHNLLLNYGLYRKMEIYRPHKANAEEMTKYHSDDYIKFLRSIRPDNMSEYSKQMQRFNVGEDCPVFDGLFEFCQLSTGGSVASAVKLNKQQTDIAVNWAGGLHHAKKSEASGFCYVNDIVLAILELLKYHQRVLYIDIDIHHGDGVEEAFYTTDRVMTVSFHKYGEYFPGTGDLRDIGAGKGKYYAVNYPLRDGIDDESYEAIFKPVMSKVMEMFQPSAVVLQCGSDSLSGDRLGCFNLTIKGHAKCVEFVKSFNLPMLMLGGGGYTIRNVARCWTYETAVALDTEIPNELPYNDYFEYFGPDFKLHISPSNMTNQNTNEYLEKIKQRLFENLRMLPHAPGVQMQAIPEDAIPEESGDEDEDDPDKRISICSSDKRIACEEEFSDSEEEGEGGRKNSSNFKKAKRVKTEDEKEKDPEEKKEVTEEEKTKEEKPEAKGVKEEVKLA

Row | SMILES | IC50 [1] [nM] | IC50 [2] [nM] | IC50 [3] [nM] | left ventricular function (dP/dtmax, dP/dtmin, developed pressure, rate pressure product) [4] | infarct area / viable myocardium (TTC staining) [4] | maximal uncoupled OCR [5, 9] | maximal uncoupled OCR [5, 10] | oxidative damage (oxyblotting) [6] | change in SDHA acetylation [7] | acetylation of SDHA K480 [7] | acetylation of lysine corresponding to mouse SDHA K538 ([7]; IR with drug vs IR with vehicle) | SDH activity [8] | change in acetylation of rat SDHA lysine corresponding to mouse K179 ([7]; IR vs IR+drug)
1 | N=c1ccc2c(-c3ccccc3C(=O)NCCCCCC(=O)Nc3ccccc3N)c3ccc(N)cc3oc-2c1 [LL38, 2-(6-(2-(6-amino-3-iminio-3H-xanthen-9-yl)benzamido)hexanamido) benzenaminium 2,2,2-trifluoroacetate] | 1260 | 490 | 180 | – | – | – | – | – | – | – | – | – | –
2 | N=c1ccc2c(-c3ccccc3C(=O)NCCCCCCC(=O)Nc3ccccc3N)c3ccc(N)cc3oc-2c1 [LL45, 2-(7-(2-(6-amino-3iminio-3H-xanthen-9-yl)benzamido)heptanamido) benzenaminium 2,2,2-trifluoroacetate] | 1950 | 2460 | 55 | – | – | – | – | – | – | – | – | – | –
3 | CCCNNC(=O)c1ccc(CNC(=O)c2ccccc2-c2c3ccc(=N)cc-3oc3cc(N)ccc23)cc1 [LL65, 6-amino-9-(2-((4-(2-propylhydrazine-1-carbonyl)benzyl)carbamoyl)phenyl)-3H-xanthen-3-iminium 2,2,2-trifluoroacetate] | 276 | 849 | 36 | – | – | – | – | – | – | – | – | – | –
4 | N=c1ccc2c(-c3ccccc3C(=O)NCc3ccc(C(=O)Nc4ccccc4N)cc3)c3ccc(N)cc3oc-2c1 [LL66, 2-(4-((2-(6-amino-3-iminio-3H-xanthen-9-yl)benzamido)methyl)benzamido) benzenaminium 2,2,2-trifluoroacetate] | 4020 | 3480 | 355 | same magnitude of LV functional recovery from injury as the non-targeted class I HDAC inhibitor MS-275 | rescued viable myocardium to the same extent as MS-275 | significantly decreased | significantly decreased | reduction of oxidative damage | significant changes in acetylation | significantly hyperacetylated | significantly hyperacetylated | significantly reduced | –
5 | CCCNNC(=O)c1ccc(CNC(=O)CNC(=O)c2ccccc2-c2c3ccc(=N)cc-3oc3cc(N)ccc23)cc1 [LL115, 6-amino-9-(2-((2-oxo-2-((4-(2-propylhydrazine-1-carbonyl)benzyl)amino)ethyl)carbamoyl)phenyl)-3H-xanthen-3-iminium 2,2,2-trifluoroacetate] | 41 | 209 | 5 | – | – | – | – | – | – | – | – | – | –
6 | N=c1ccc2c(-c3ccccc3C(=O)NCCCCCCCC(=O)Nc3ccccc3N)c3ccc(N)cc3oc-2c1 [LL130, 2-(8-(2-(6-amino-3-iminio-3H-xanthen-9-yl)benzamido)octanamido) benzenaminium 2,2,2-trifluoroacetate] | 4730 | 5170 | 152 | – | – | – | – | – | – | – | – | – | –
7 | CCCNNC(=O)CCCCCCNC(=O)c1ccccc1-c1c2ccc(=N)cc-2oc2cc(N)ccc12 [LL142, 6-amino-9-(2-((7-oxo-7-(2-propylhydrazinyl)heptyl)carbamoyl)phenyl)-3H-xanthen-3-iminium 2,2,2-trifluoroacetate] | 111 | 460 | 6 | – | – | – | – | – | – | – | – | – | –
8 | CCCNNC(=O)c1ccc(NC(=O)CNC(=O)c2ccccc2-c2c3ccc(=N)cc-3oc3cc(N)ccc23)cc1 [LL162, 6-amino-9-(2-((2-oxo-2-((4-(2-propylhydrazine-1-carbonyl)phenyl)amino)ethyl)carbamoyl)phenyl)-3H-xanthen-3-iminium 2,2,2-trifluoroacetate] | 124 | 468 | 7 | – | – | – | – | – | – | – | – | – | –
9 | Nc1ccccc1NC(=O)c1ccc(CNC(=O)OCc2cccnc2)cc1 [MS-275, reference compound] | – | – | – | significant preservation of multiple parameters of ventricular function | significantly reduced infarct area | significantly decreased | significantly decreased | reduction of oxidative damage | significant changes in acetylation | significantly hyperacetylated | – | significantly reduced | not significant
